Read-outs that look alike come from different tables or passages of the source.
Experiments:
MZ-54 glioblastoma cells = assay: MTT cell viability assay, MZ-54 glioblastoma; format: cell-based; settings: Homo sapiens, read-out: Inhibitory concentration IC50
Protocol: U251 (formerly known as U-373 MG; ECACC 09063001), Mz54 (CVCL_M406) human glioblastoma cell lines were cultured in DMEM+GlutaMax supplemented with 10% fetal bovine serum and 1% penicillin/streptomycin mixture. The human glioma cell line Mz54 was obtained from the Dept. of Neurosurgery, University Medical Centre, Johannes Gutenberg University Mainz, Germany, where this line was isolated from a recurrent grade IV glioblastoma. U251 and Mz54 cells were used in passages between 10 and 25 after re-authentication and 40 to 55 after culture establishment, respectively. Only mycoplasma-free cell cultures were used.
(§1) […] Afterward, 10 µL of a 5 mg/mL MTT solution in PBS was added to the cells for 3 h at 37 °C. Then, the spheres were centrifuged shortly to collect the cells on the bottom of the plate, and the medium was removed by careful pipetting for both adherently grown and floating sphere GBM cultures. Afterward, formazan was dissolved in a mixture (24:1 v:v) of isopropanol and 1 M HCl using 100 µL for adherent cells by shaking the plates for at least 20 min. The absorbance of formazan (λ = 570 nm), and background (λ = 630 nm) was measured with a microplate reader (Tecan Spark, Tecan Deutschland GmbH, Crailsheim, Germany).

[1] = tested on: NE-4C neuroectodermal stem cells; assay: MTT cell viability assay, NE-4C neuroectodermal stem cells; format: cell-based; settings: Mus musculus, read-out: Inhibitory concentration IC50
Protocol: (§2) NE-4C cells derived from the anterior brain vesicles of p53-deficient 9-day-old mouse embryos were maintained in Minimum Essential Medium (MEM; Sigma Aldrich, Taufkirchen, Germany) supplemented with 5% fetal calf serum (FCS; Invitrogen-Gibco, Carlsbad, CA, USA), 4 mM glutamine (Sigma-Aldrich, Taufkirchen, Germany) and 40 ug/mL gentamycin (Chinoin, Budapest, Hungary). For maintenance, subconfluent cultures were regularly split by trypsinization (0.05 w/v% trypsin in PBS) into poly-L-lysine-coated Petri dishes. Primary astrocytes were isolated from whole brains of neonatal (P0-P3) mice, as described earlier. In brief, meninges were removed, and the tissue pieces were subjected to enzymatic dissociation, using 0.05% w/v trypsin and 0.05% w/v DNase for 10 min at room temperature. The cells were plated onto poly-L-lysine coated plastic surfaces and grown in MEM supplemented with 10% fetal calf serum, 4 mM glutamine and 40 ug/mL gentamycin. Primary neuronal cultures were prepared from embryonic (E15–E16) mouse (CD1) forebrains, as described earlier. In brief, cell suspensions were prepared by mechanical dissociation over a nylon mesh with a pore diameter of 40–42 μm. The cells were seeded at 10^5 cells/cm^2 density onto PLL-coated surfaces. The cultures were maintained in MEM supplemented with 5% FCS, 4 mM glutamine, 40 µg/mL gentamicin and 2.5 μg/mL amphotericin B (Sigma). In co-culture experiments, U87 glioma cells were seeded onto established neuronal cultures at DIV3 in a 25,000 cell/cm^2 density.
(§3) Non-GBM cells (5 × 10^4 cells/mL, 100 µL/well) were grown in 96-well plates for 24 h. […] After the addition of 12.5 µL of a 0.5% MTT solution in PBS, the cells were incubated for 3 h at 37 °C so that the water-soluble MTT could be converted to formazan crystals. Then, the plates were centrifuged (300× g, 5 min, 4 °C), the medium withdrawn, and the formazan dissolved in 25 µL of DMSO containing 10% sodium dodecylsulfate (SDS) and 0.6% acetic acid for at least 2 h at 37 °C. In the case of the HL60 cells, after 2 h, the precipitate of formazan crystals was redissolved in a 10% solution of SDS in DMSO containing 0.6% acetic acid.

primary astrocytes = assay: MTT cell viability assay, primary astrocytes; format: cell-based; settings: Mus musculus, Astrocyte, read-out: Inhibitory concentration IC50
Protocol: as §2, §3

[2] = tested on: HT-29 colon carcinoma cells; assay: MTT cell viability assay, HT-29 colon carcinoma; format: cell-based; settings: Homo sapiens, read-out: Inhibitory concentration IC50
Protocol: (§4) 518A2 (Department of Radiotherapy, Medical University of Vienna, Vienna, Austria) melanoma, KB-V1^Vbl (ACC-149) cervix carcinoma, MCF-7^Topo (ACC-115) breast carcinoma, HT29 (ACC-299) colon carcinoma were cultivated in Dulbecco’s Modified Eagle Medium (DMEM) supplemented with 10% fetal bovine serum and 1% antibiotic-antimycotic at 37 °C, 5% CO2, and 95% humidity. To keep MCF-7^Topo and KB-V1^Vbl cells resistant, the maximum-tolerated doses of topotecan or vinblastine were added to the cell culture medium 24 h after every passage. The human HL60 leukemia cells were obtained from the German National Resource Center for Biological Material (DSMZ), Braunschweig. Neuroectodermal stem cells NE-4C (ATCC No. CRL-2925), primary mouse astrocytes, rat glioma C6 (ATCC No. CCL-107) and human glioma U87 (ATCC No. HTB-14) were used.
as §3

[3] = tested on: KBv1^+Vbl cervix carcinoma cells; assay: MTT cell viability assay, KBv1+Vbl cervix carcinoma; format: cell-based; settings: Homo sapiens, KB-V1/Vbl, read-out: Inhibitory concentration IC50
Protocol: as §4, §3

C6 astrocytoma cells = assay: MTT cell viability assay, C6 astrocytoma; format: cell-based; settings: Rattus norvegicus, read-out: Inhibitory concentration IC50
Protocol: as §4
Non-GBM cells (5 × 10^4 cells/mL, 100 µL/well) were grown in 96-well plates for 24 h. Then, they were treated with various concentrations of the test compounds or vehicle (DMSO, or EtOH) for 72 h at 37 °C. After the addition of 12.5 µL of a 0.5% MTT solution in PBS, the cells were incubated for 3 h at 37 °C so that the water-soluble MTT could be converted to formazan crystals. Then, the plates were centrifuged (300× g, 5 min, 4 °C), the medium withdrawn, and the formazan dissolved in 25 µL of DMSO containing 10% sodium dodecylsulfate (SDS) and 0.6% acetic acid for at least 2 h at 37 °C. In the case of the HL60 cells, after 2 h, the precipitate of formazan crystals was redissolved in a 10% solution of SDS in DMSO containing 0.6% acetic acid.
as §1

embryonal neuronal cells = assay: Long-term development of embryonal neuronal cell cultures; format: cell-based, mouse; settings: 1 µM, 3, 6 or 8 days
Protocol: as §2, with “In co-culture experiments, U87 glioma cells were seeded onto established neuronal cultures at DIV3 in a 25,000 cell/cm^2 density.” left out

Compound `CC1=C2C(=CC(C)(C)[C@@H]2O)C(=O)[C@](C)(O)C12CC2` [Compound 1, illudin M] has an IC50 (MZ-54 glioblastoma cells; MZ-54, 24 h exposure) of 550 ± 160 nM, an IC50 (MZ-54 glioblastoma cells; MZ-54, 48 h exposure) of 60 ± 10 nM and an IC50 ([1]; 24 h exposure) of 400 ± 100 nM. The IC50 ([1]; 48 h exposure) was 50 ± 20 nM, the IC50 (primary astrocytes; 24 h exposure) was 1500 ± 400 nM and the IC50 (primary astrocytes; 48 h exposure) was 200 ± 30 nM. For the same compound, the IC50 ([2]; HT-29, 24 h exposure) was 1500 ± 600 nM, the IC50 ([2]; HT-29, 48 h exposure) was 60 ± 10 nM and the IC50 ([3]; 24 h exposure) was 3 ± 1 nM. It also gave an IC50 ([3]; 48 h exposure) of 2 nM, an IC50 (C6 astrocytoma cells; C6, 24 h exposure) of 1000 ± 300 nM and an IC50 (C6 astrocytoma cells; C6, 48 h exposure) of 400 ± 60 nM.

In the case of `CC1=C(/C=C/C(C)=C/C=C/C(C)=C/C(=O)O[C@@H]2C3=C(C)C4(CC4)[C@@](C)(O)C(=O)C3=CC2(C)C)C(C)(C)CCC1` [Compound 2, illudin M retinoate], the IC50 (MZ-54 glioblastoma cells; MZ-54, 48 h exposure) is reported as 5480 ± 1200 nM, the “development of neuronal cells” value (embryonal neuronal cells) is reported as “developed normally” and the IC50 ([1]; 24 h exposure) is reported as 7000 ± 3200 nM. It also gave an IC50 ([1]; 48 h exposure) of 2000 ± 1200 nM, an IC50 (primary astrocytes; 24 h exposure) of 45000 ± 2000 nM and an IC50 (primary astrocytes; 48 h exposure) of 33000 ± 4000 nM. It also gave an IC50 ([2]; HT-29, 24 h exposure) of 38000 ± 4000 nM, an IC50 ([2]; HT-29, 48 h exposure) of 4000 ± 1300 nM and an IC50 ([3]; 24 h exposure) of 1600 ± 400 nM. For the same compound, the IC50 ([3]; 48 h exposure) was 1200 ± 100 nM, the IC50 (C6 astrocytoma cells; C6, 24 h exposure) was 40000 ± 4000 nM and the IC50 (C6 astrocytoma cells; C6, 48 h exposure) was 12000 ± 1300 nM.
